Patent US12698523B2, “Enhancement of nucleic acid polymerization by aromatic compounds” (priority 2019, dated 2026)

Assays:
DNA polymerase [1] = assay: Sequencing by Expansion (SBX) of primer extension products, nanopore reads aligned to template; type: biochemical
Description: To investigate the accuracy of PEM-dependent enhancement of XNTP polymerization, primer extension products were sequenced using the SBX protocol. Briefly, the constrained Xpandomer products of XNTP polymerization are cleaved to generate linearized Xpandomers. This is accomplished by first quenching the extension reaction with a solution containing 100 Mm EDTA, 2 Mm THPTA, and 2% Tween-20. Then the sample is subjected to amine modification with a solution of 1 M NaHCO3 and 1 M succinic anhydride in DMF. Cleavage of the phosphoramidate bonds is carried out with 37% HCl and linearized Xpandomers are purified with QIAquick columns (QIAGEN, Inc.).
For sequencing, protein nanopores are prepared by inserting a-hemolysin into a DphPE/hexadecane bilayer member in buffer B1, containing 2 M NH4Cl and 100 Mm HEPES, Ph 7.4. The cis well is perfused with buffer B2, containing 0.4 M NH4Cl, 0.6 M GuCl, and 100 Mm HEPES, Ph 7.4. The Xpandomer sample is heated to 70° C. for 2 minutes, cooled completely, then a 2 μL sample is added to the cis well. A voltage pulse of 90 Mv/390 Mv/10 μs is then applied and data is acquired via Labview acquisition software.
Sequence data is analyzed by histogram display of the population of sequence reads from a single SBX reaction. […]

[2] = target: T1, C4552 (variant of DPO4 DNA polymerase, SEQ ID NO:1) (Saccharolobus solfataricus, UniProt Q97W02, A155G/A42V/D156R/D292Y/D294N/E291S/E324K/E325K/E327K/E79L/G187P/G299W/I153V/I189F/I248T/I295S/K152A/K317Q/K321Q/K56Y/K78D/L293W/M76W/N188Y/P184Q/Q82W/Q83G/R300S/S297Y/S86E/T290K/T301W/V289W/V296Q); assay: XNTP polymerization on longer templates (88, 127, 227, 277 nucleotides); type: biochemical, Sulfolobus solfataricus; settings: 1 Mm compound; templates of 88, 127, 227, 277 nucleotides; 1-2 hr at 23° C.; FIG. 8
T1 construct: made in house
Method: Following the success of accurately replicating templates of up to 80 nucleotides in length into Xpandomers, XNTP polymerization reactions were conducted using four longer templates, consisting of 88, 127, 227, and 277 nucleotides in length. A variant of DPO4 DNA polymerase, referred to as C4552 (SEQ ID NO:1), was used in these polymerization reactions and reaction conditions were optimized for C4552 activity in the presence of PEM compound 1. Other suitable DPO4 polymerase variants include, but are not limited to, those of SEQ ID NO:s 2-5. In addition to 1 Mm compound 1, reaction additives included […] and 2.75 μg single-strand binding protein (Eco SSB). Extension reactions were carried out with 0.85 pmol template, 0.5 pmol oligonucleotide primer, and 1 nmol each XNTP in a final volume of 10 μL. Reactions were run in buffer composed of 50 Mm TrisCl, Ph 8.84, 200 Mm NH4Oac, and 20% PEG8K supplemented with 5% NMS, polyphosphate PP-60.20 in amounts of 3 or 4 nmol, and 2 Mm MnCl2. 1.2 μg purified recombinant DNA polymerase protein was used in each extension reaction and reactions were run for 1-2 hr at 23° C. […] Lanes 1-5 and 6-10 represent identical extension reactions with the exception of the amount of PP-60.20 additive, which was 3 nmol in lanes 1-5 and 4 nmol in lanes 6-10.

C4552 DNA polymerase = target: T2, C4552 DNA polymerase (Saccharolobus solfataricus, UniProt Q97W02, A155G/A42V/D156R/D292Y/D294N/E291S/E324K/E325K/E327K/E79L/G187P/G299W/I153V/I189F/I248T/I295S/K152A/K317Q/K321Q/K56Y/K78D/L293W/M76W/N188Y/P184Q/Q82W/Q83G/R300S/S297Y/S86E/T290K/T301W/V289W/V296Q); assay: Primer extension assay with three 100mer templates derived from the HIV1, 2 and 3 genomes; type: biochemical, Sulfolobus solfataricus; settings: 0.5 Mm PEM; HIV1, HIV2, HIV3 100mer templates; 30 minutes at 23° C.; FIG. 9
T2 construct: made in house
Method: PEM activity of compounds 9-11 was tested in primer extension assays using three 100mer templates, derived from the HIV1, 2, and 3 genomes. Primer extension reactions included the following reagents: 75 Mm TrisCl, Ph 8.44, 175 Mm NH4Oac, 20% PEG8K, 5% NMS, 0.8 nmol PP-60.20, 0.6 Mm MnCl2, 2.3 μg Tth single-strand binding protein (SSB), 0.5 M or 1 M urea, 200 pmol each XNTP, 1.1 pmol template, 1 pmol oligonucleotide primer, 1.2 μg purified recombinant C4552 DNA polymerase, and 0.5 Mm PEM. 10 μL primer extension reactions were run for 30 minutes at 23° C. and reaction products were analyzed by gel electrophoresis.

DNA polymerase [3] = assay: Screen of PEMs for enhancement of XNTP polymerization (primer extension reaction, gel electrophoresis); type: biochemical; settings: FIG. 4 gel; no PEM additive: up to only around 14 XNTPs
Description: The Sequencing by Expansion (SBX) methodology developed by the inventors provides significant performance enhancements in sequence read efficiency and accuracy of Xpandomers relative to native DNA. However, initial transcription of the sequence of the natural DNA template onto the measurable Xpandomer relies on the ability of DNA polymerase to utilize XNTPs as substrates (the generalized structure of an XNTP is discussed herein with reference to FIG. 1A and FIG. 2). […] In an effort to improve the efficiency and accuracy of XNTP polymerization into Xpandomers, several PEMs were screened for the ability to enhance DNA polymerase primer extension reactions using XNTPs as substrates.
A representative primer extension reaction may include the following reagents: 2 pmol primer, 2.2 pmol 45mer oligonucleotide template, 50 pmol of each XNTP (XATP, XCTP, XGTP, and XTTP), 50 Mm Tris HCl, Ph 6.79, 200 Mm NaCl, 20% PEG, 5% NMS, 0.5 nmol polyphosphate 60.19, 0.3 Mm MnCl2, and 0.6 μg of purified recombinant DNA polymerase protein. Reactions may be run for 1 hr at 23° C. Reaction products (i.e., constrained Xpandomers) are treated to cleave the phosphoramidate bonds, thereby generating linearized Xpandomers. Reaction products may be analyzed using gel electrophoresis on 4-12% acrylamide gels to resolve and visualize Xpandomer products of different lengths. For the PEM screen described above, PEMs were typically tested in the micro to millimolar range.
Again, this PEM activity is specific for compound 2, as other unrelated aromatic compounds had no effect (lanes 2-7).

[4] = target: T3, C4760 DNA polymerase (a variant of DPO4, SEQ ID NO:2) (Saccharolobus solfataricus, UniProt Q97W02, A155G/A42V/D156R/D292Y/D294N/E291S/E324K/E325K/E327K/E63R/E79L/G187P/G299W/I153V/I189F/I248T/I295S/K152A/K317Q/K321Q/K56Y/K78D/L293W/M76W/N188Y/P184Q/Q82W/Q83G/R300S/S297Y/S86E/T290K/T301W/V289W/V296Q); assay: Primer extension assay with a 411mer amplicon template; type: biochemical, Sulfolobus solfataricus
T3 construct: made in house
Method: PEM activity of compound 15 was tested in primer extension assays using a 411mer amplicon template. Primer extension reactions included the following reagents: 50 Mm TrisCl, 200 Mm NH4Oac, 20% PEG8K, 5% NMS, 3 nmol PP-60.20, 2 Mm MnCl2, 2 μg Kod single-strand binding protein (SSB), 1 M urea, 250 pmol each XNTP, 1 pmol template, 1 pmol oligonucleotide primer, 1.2 μg purified recombinant C4760 DNA polymerase (a variant of DPO4, see SEQ ID NO:2), and 2 (lane 2) or 3 (lane 3) Mm PEM. 10 μL primer extension reactions were run for 20 minutes at 37° C. and reaction products were analyzed by gel electrophoresis. A representative gel showing primer extension products is presented in FIG. 12 (the position of a 277mer is indicated by the arrow). […] Remarkably, the polymerase is completely dependent upon the addition of PEM to the reaction in order to be capable of synthesizing these lengthy Xpandomer products. Even longer extension products may be obtained by optimizing various reaction parameters, e.g., extension time and/or concentrations of various additives.
PEM activity of compound 19, was tested in primer extension assays using the 411mer amplicon template. […] 10 μL primer extension reactions were run for 30 minutes at 37° C. and reaction products were analyzed by gel electrophoresis. […]

T3 sequence (Q97W02 other isoform, or with tags, fused parts or gaps with the stated changes): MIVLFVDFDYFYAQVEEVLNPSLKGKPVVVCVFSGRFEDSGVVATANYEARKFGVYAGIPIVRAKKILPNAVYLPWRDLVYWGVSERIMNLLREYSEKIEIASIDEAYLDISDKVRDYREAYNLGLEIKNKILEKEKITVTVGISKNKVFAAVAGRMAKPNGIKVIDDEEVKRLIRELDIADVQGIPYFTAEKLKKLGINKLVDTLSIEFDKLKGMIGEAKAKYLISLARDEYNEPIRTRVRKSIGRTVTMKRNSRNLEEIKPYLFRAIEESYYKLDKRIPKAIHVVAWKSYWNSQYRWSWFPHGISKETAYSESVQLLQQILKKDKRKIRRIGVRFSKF
T2 sequence (Q97W02 other isoform, or with tags, fused parts or gaps with the stated changes): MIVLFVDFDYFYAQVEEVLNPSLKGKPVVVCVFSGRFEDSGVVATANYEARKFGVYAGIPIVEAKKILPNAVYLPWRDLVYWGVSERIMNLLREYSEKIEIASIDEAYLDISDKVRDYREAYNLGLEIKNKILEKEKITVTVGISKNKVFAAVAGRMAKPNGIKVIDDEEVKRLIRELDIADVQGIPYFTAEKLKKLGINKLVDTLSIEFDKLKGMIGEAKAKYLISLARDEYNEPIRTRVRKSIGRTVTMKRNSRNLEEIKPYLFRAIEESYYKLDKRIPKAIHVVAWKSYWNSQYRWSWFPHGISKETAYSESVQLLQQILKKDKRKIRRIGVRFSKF

O=C(O)c1ccc(-n2cc(-c3cccc(-c4cn(-c5ccc(C(=O)O)c(O)c5)nn4)n3)nn2)cc1O [Compound 1, 4,4′-(pyridine-2,6-diylbis(1H-1,2,3-triazole-4,1-diyl))bis(2-hydroxybenzoic acid)]
accuracy of SBX sequence reads (DNA polymerase [1]; 45mer template, FIG. 6B, without additive reads not accurate past around base 18): increased the accuracy of the sequence reads across the entire length of the 45mer template | accuracy of SBX sequence reads (DNA polymerase [1]; 60mer and 80mer templates, FIGS. 7A and 7B): enabled accurate sequence reads completely to the end of each of these longer templates | polymerization of XNTPs into Xpandomer copies of long templates [2]: complete Xpandomer copies of each longer template | polymerization of XNTPs into full length Xpandomer copies (PEM activity) (C4552 DNA polymerase): enables polymerization of XNTPs into full length Xpandomer copies of the three different 100mer templates | DNA polymerase-mediated primer extension with XNTPs (length of extension products) (DNA polymerase [3]): considerably longer extension products

CCOC(=O)c1cc(-c2cn(-c3ccc(O)c(C(=O)O)c3)nn2)nc(-c2cn(-c3ccc(O)c(C(=O)O)c3)nn2)c1 [Compound 15, 5,5′-((4-(ethoxycarbonyl)pyridine-2,6-diyl)bis(1H-1,2,3-triazole-4,1-diyl))bis(2-hydroxybenzoic acid)]
polymerization of XNTPs into lengthy Xpandomer copies (PEM activity) ([4]; 2 or 3 Mm PEM, 20 minutes at 37° C., FIG. 12): enables polymerization of XNTPs into lengthy Xpandomer copies of the 411mer template in a manner comparable to that of compound 14

NC(=O)c1cc(-c2cn(-c3ccc(C(=O)O)c(O)c3)nn2)nc(-c2cn(-c3ccc(C(=O)O)c(O)c3)nn2)c1 [Compound 19, 4,4′-((4-carbamoylpyridine-2,6-diyl)bis(1H-1,2,3-triazole-4,1-diyl))bis(2-hydroxybenzoic acid)]
polymerization of XNTPs into lengthy Xpandomer copies (PEM activity) ([4]; 0.5, 1, or 1.5 Mm PEM, 30 minutes at 37° C., FIG. 14): enables polymerization of XNTPs into lengthy Xpandomer copies of the 411mer template, albeit in a manner less efficient than that of compound 14
